Reference: patent publication US8663647B2, “Epitope peptides derived from vascular endothelial growth factor receptor 1 and vaccines containing these peptides” (Oncotherapy Science, Inc., priority 2005, dated 2014)
Entries after “also recorded” stand apart in the source; their conditions may differ.

Key:
MCA205 cells = experiment: In vivo anti-tumor effects, therapeutic model; parameters: species or system A2/Kb transgenic mice; details: MCA205 i.d. day 0; vaccination with IFA-conjugated peptide after tumor challenge
Procedure: We examined the anti-tumor effects of this vaccination with a therapeutic model. The 1×10^5 MCA205 cells or the 5×10^5 B16 cells were injected i.d. in the right flank on day 0, and vaccination was performed on day 4 and day 14 using IFA conjugated corresponding peptides. […] The MCA205, a methylcholanthrene-induced murine fibrosarcoma cell line were injected i.d. into A2/Kb TGM on day 0, and vaccination was performed on these mice on 4 and 14 days after the tumor challenge using VEGFR1-1087, -770, -417 peptides conjugated with IFA (FIG. 6).

[1] = tested on: angiogenesis induced by MC38 cells; experiment: Dorsal air sac (DAS) in vivo angiogenesis assay; parameters: species or system A2/Kb transgenic mice; details: vaccinated twice with IFA-conjugated peptide, MC38 chamber, semiquantitative
Description: We examined the effects of peptide vaccination using dorsal air sac (DAS) assay which was designed to measure in vivo angiogenesis induced by tumor cells as previously described (Oikawa et al., (1997) Anticancer Res. 17: 1881-6). In brief, the A2/Kb TGM were vaccinated twice with 1-week interval in the left flank using IFA conjugated corresponding peptides as previously described with some modification (Schuler et al., (1997) J. Exp. Med. 186: 1183-7, Song et al., (1997) J. Exp. Med. 186: 1247-56, Specht et al., (1997) J. Exp. Med. 186: 1213-21). Millipore chamber (Millipore Corporation, Bedford, Mass.) was filled with PBS containing MC38 cells (1×10^6 cells) and implanted in the dorsum of anesthetized mice on day 0. The implanted chambers were removed from s.c. fascia on day 6 and then black rings were placed at the sites exposed to a direct contact with the chamber. The angiogenic response was assessed with photographs taken using a dissecting microscope. The extent of angiogenesis was determined with the number of newly formed blood vessels of >3 mm in length and scored semi quantitatively using an index ranging from 0 (none) to 5 (many).

[2] = tested on: T2 cells and A24-LCL pulsed with candidate peptides; experiment: CTL induction with peptide-pulsed DCs and 4-h 51Cr-release cytotoxicity assay on peptide-pulsed target cells; type: cell-based; details: human PBMC-derived DCs pulsed with peptide, autologous CD8+ T cells
Description: Monocyte-derived dendritic cells (DCs) were used to induce CTL responses against peptides presented on HLA as previously described (Nukaya et al., (1999) Int. J. Cancer. 80: 92-7, Tsai et al., (1997) J. Immunol. 158: 1796-802, Nakahara et al., (2003) Cancer Res. 63: 4112-8). In brief, the PBMCs were obtained from the healthy volunteers with corresponding HLAs and cultured in the presence of GM-CSF (provided by Kirin Brewery Company, Japan) and IL-4 (Genzyme/Techne, Minneapolis). After culture for 5 days, OK-432 (Chugai Pharmaceutical Corporation, Japan) was added to the culture to obtain mature DCs (Nakahara et al., (2003) Cancer Res. 63: 4112-8). On day 7, generated mature DCs were pulsed with each peptide for T cell stimulation. Using these peptide-pulsed DCs each time, the autologous CD8+ T cells were stimulated for three times on day 0, 7 and 14, and then the resultant lymphoid cells were tested for their cytotoxic activities on day 21. To generate CTL clones, established CTL lines were plated in 96-well plates at 0.3, 1, and 3 cells per well with allogenic PBMCs and […] as stimulator cells. Cytotoxic activities of resulting CTL clones were tested on the 14th day. Cytotoxic activities were measured using a standard 4-h ^51Cr-release assay. The T2 cells and A24-LCL were used as target cells pulsed with candidate peptides. Percent specific lysis was calculated as follows: % Specific lysis=[(experimental release−spontaneous release)/(maximum release−spontaneous release)]×100. Immunogenicity of Epitope Peptides in A2/Kb TGM

[3] = tested on: IFN-γ production of CTLs against T2 cells pulsed with peptides; experiment: IFN-γ ELISPOT assay, immunogenicity of epitope peptides in A2/Kb TGM; type: in vivo, A2/Kb transgenic mice; details: IFA-conjugated peptide injected day 0 and day 11; splenocytes day 21; E/T ratio x20
Procedure: For priming the peptide-specific CTLs, immunization was given using 200 μl of vaccine mixture, which contains 100 μg of an HLA-A2 restricted peptide and 100 μl of IFA per mouse. The vaccine was injected intradermally in the right flank for the first immunization on day 0 and in the other flank for the second on day 11. On day 21, splenocytes of the vaccinated mice were used as the responder cells, and T2 cells pulsed with or without peptides were used as the stimulator cells for ELISPOT assay.
At first, we evaluated the immunogenicity of the epitope peptides for A2/Kb TGM to examine the specific production of IFN-γ of the CTLs induced with these peptides by ELISPOT assay (FIG. 4). IFA-conjugated peptide was injected s.c. into A2/Kb TGM on day 0 and day 11. On day 21, splenocytes of the vaccinated mice were harvested and used as the responder cells, and T2 cells pulsed with or without peptides were used as the stimulator cells for ELISPOT assay. […] In this ELISPOT assay using A2/Kb TGM system, positive results were shown for the epitope peptides identified using human PBMCs.

Row | Sequence | Suppression of tumor growth (MCA205 cells) | Inhibition of tumor-induced angiogenesis (newly formed vessels) ([1]; listed as VEGFR1-770) | CTL inducibility [2] | Specific production of IFN-γ for the corresponding peptide [3] | Inhibition of tumor-induced angiogenesis (newly formed vessels) ([1]; listed as VEGFR1-1087) | Inhibition of tumor-induced angiogenesis (newly formed vessels) ([1]; listed as VEGFR1-417)
1 | TLFWLLLTL (synthetic vascular endothelial growth factor receptor 1 (VEGFR1, Flt-1) epitope peptide binding HLA-A*0201 with high cytotoxic T lymphocyte (CTL) inducibility) [SEQ ID NO: 2] | Significant suppression of tumor growth was observed | significant inhibition on angiogenesis was observed; also recorded: Significant inhibition of tumor-induced angiogenesis was observed | particularly high CTL inducibility | Specific production of IFN-γ for the corresponding peptide was observed |  | 
2 | VLLWEIFSL (synthetic vascular endothelial growth factor receptor 1 (VEGFR1, Flt-1) epitope peptide binding HLA-A*0201 with high cytotoxic T lymphocyte (CTL) inducibility) [SEQ ID NO: 1] | Significant suppression of tumor growth was observed |  | particularly high CTL inducibility | Specific production of IFN-γ for the corresponding peptide was observed | significant inhibition on angiogenesis was observed; also recorded: Significant inhibition of tumor-induced angiogenesis was observed | 
3 | NLTATLIVNV (synthetic vascular endothelial growth factor receptor 1 (VEGFR1, Flt-1) epitope peptide binding HLA-A*0201 with high cytotoxic T lymphocyte (CTL) inducibility) [SEQ ID NO: 13] |  |  | particularly high CTL inducibility | Specific production of IFN-γ for the corresponding peptide was observed |  | significant inhibition on angiogenesis was observed; also recorded: Significant inhibition of tumor-induced angiogenesis was observed
4 | SYGVLLWEIF (synthetic vascular endothelial growth factor receptor 1 (VEGFR1, Flt-1) epitope peptide binding HLA-A*2402 with high cytotoxic T lymphocyte (CTL) inducibility) [SEQ ID NO: 32] |  |  | particularly high CTL inducibility |  |  | 
